Legend:
MECP2-KO neurons [1] = test: Calcium imaging of neurons; format: cell-based, human; details: vs untreated KO
Procedure: (§1) Pharmacologic treatment. One-month old cortical organoids were treated for 1 mo with either Nefiracetam (10 μM) or PHA 543613 (10 μM) during media changes.
Calcium imaging. Calcium imaging was performed as described in Chailangkarn et al. Briefly, PSC-derived neuronal networks were lentivirally transduced with a Syn::RFP reporter construct. Cultures were washed with Krebs HEPES buffer and incubated with Fluo-4AM (Molecular Probes/Invitrogen, Carlsbad, Calif., USA). A Hamamatsu ORCA-ER digital camera (Hamamatsu Photonics, Japan) with 488 nm filter on an Olympus IX81 inverted fluorescence confocal microscope (Olympus Optical, Tokyo, Japan) acquired 5000 frames at 28 Hz in a 256×256 pixel region (100× magnification). Images were acquired with MetaMorph7.7 (MDS Analytical Technologies, Sunnyvale, Calif., USA) and analyzed with ImageJ and Matlab7.2 (Mathworks, Natick, Mass., USA). Syn::RFP+ neurons were selected following tetrodotoxin blockade of calcium transients. A 95th-percentile threshold of amplitude for calcium spikes was set for event detection; signal amplitude is presented as fluorescence change (ΔF/F) following background subtraction.

MECP2-KO neurons [2] = test: Co-localized pre/postsynaptic puncta quantification in neurons; format: cell-based, human; details: one-month old MECP2-KO neurons treated two weeks
Procedure: as §1
Synaptic puncta quantification. Co-localized pre and postsynaptic puncta (Vglut and Homer1 immunostained) along MAP2-positive processes were quantified. Primary antibodies (see above) incubated 2 h, secondary antibodies incubated 1 h, and coverslips were mounted. Slides were analyzed under fluorescence microscopy.
Pharmacologic screening identifies two compounds that specifically reverse MECP2-KO phenotypes. 14 commercially available pharmacologic compounds with mechanisms of action that counteract the synapse and neurotransmitter pathologies were selected and which are identified in FIG. 5B. […] MECP2-KO and control neurons were treated with each of the 14 compounds and employed a tiered series of assays to identify those that could selectively rescue MECP2-KO pathology without affecting controls. […] The capacity of these compounds to increase pre and post co-localized synaptic puncta in MECP2-KO neurons were evaluated, again eliminating the drugs that affected control neurons (see FIG. 5F-G, and FIG. 6C-D).

[3] = large Carbamoylcholine metabolite; cited from earlier work

Compound	frequency of calcium oscillations (MECP2-KO neurons [1])	percentage of active neurons (MECP2-KO neurons [1])	synaptogenesis / co-localized synaptic puncta (MECP2-KO neurons [2])	gastrointestinal absorption [3]	traversal of the blood-brain barrier [3]
CC(=O)NCCCS(=O)(=O)O [Acamprosate]	increases	increases	specifically increased synaptogenesis		
C[N+](C)(C)CCOC(N)=O [Carbamoylcholine]				limited gastrointestinal absorption	cannot traverse the blood-brain barrier

Source: patent US20230102192A1, “THERAPIES FOR THE TREATMENT OF DISEASES AND DISORDERS ASSOCIATED WITH ABNORMAL EXPRESSION OF A NEURAL-ASSOCIATED GENE” (The Regents of the University of California, priority 2020, published 2023)
